# Where a SMILES comes first, the peptide text is derived from it. [ ]: non-standard residue; d: D form. The star is where a group is joined. d(aIle) = CC[C@H](C)[C@@H](N)C(=O)O; dDab = NCC[C@@H](N)C(=O)O; Octanoyl = CCCCCCCC(=O)*; Dab = NCC[C@H](N)C(=O)O; AEEA = NCCOCCOCC(=O)O
# Tests used:
# N. gonorrhoeae FA1090 [1] = assay: microbe, parasite or virus in culture; settings: FA1090, FB
# Procedure: (§1) 37°C, in 5% CO2 then 10 μl aliquots plated onto GCB agar. The MIC was defined as the lowest concentration of an antimicrobial that prevented bacterial growth.
# (§2) Determination of N. gonorrhoeae resistance to Oct-TriA1
# (§3) Single colonies of N. gonorrhoeae FA1090 were inoculated into 2 mL of FB media supplemented with 1% Vitox (Oxoid) and grown overnight. After 24 hours, 240 µl of a 1/ 5,000 dilution of FA1090 in 2x FB was added to a 48-well plate containing 2-fold dilutions of either Oct-TriA1-c (final concentration, 12.5 µg/ml to 0.2 µg/ml) or ciprofloxacin (final concentration, 16.4 to 0.001 µg/ml) in a total volume of 480
# (§4) µl. Plates were incubated at 37 °C, 5% CO2 with shaking (180 rpm). After 24 hours, ODA600 of each well […]
# to fresh media containing all concentrations of antimicrobials for a total of 35 days. […]
# HK-2 cells [2] = assay: LDH release cytotoxicity; format: cell-based, human; settings: n = 3
# Procedure: HK-2 cells (CRL-2190™, Americab Type Culutre Collection (ATCC)), a proximal renal tubule cell(7), and End1/E6E7 (CRL-2615™, ATCC) upper cervical epithelial cells(8) were cultured in Keratinocyte Serum Free Medium (Invitrogen, Life Technologies Ltd.) with human recombinant EGF (5 ng ml-1) and bovine pituitary extract (0.05 mg ml−1) at 37°C in 5% CO2. Cells were seeded in 96-well plates (Corning, Polystyrene) at a density of 2 × 10^4 cells/well 24 hr prior; Triton-X-100 (0.1%) and Digitonin (30 μg ml−1) were used as controls. Lactate dehydrogenase (LDH) release was measured using the Biovision kit; the OD490 was assessed in a SpectraMax M5 plate reader. […]
# [3] = system: N. gonorrhoeae G97687 (MDR isolate); settings: G97687, MDR isolate resistant to ESCs and azithromycin; microdilution in FB, 24 hr, 37°C, 5% CO2
# Procedure: Determination of Oct-TriA1 Minimum Inhibitory Concentration (MIC)
# N. gonorrhoeae was resuspended in PBS to an ODA600 1.0, and ̴5 × 10^4 CFU added to wells of a microdilution plate containing dilutions of antimicrobials in FB. Plates were incubated for 24 hr at […]
# 37°C, in 5% CO2 then 10 μl aliquots plated onto GCB agar. The MIC was defined as the lowest concentration of an antimicrobial that prevented bacterial growth. […]
# Peptide concentration in ADC preparations
# Peptide concentrations for ADCs were calculated from the antibody concentration, the drug-to-antibody ratio (DAR), and the peptide molecular weight using the following formula:
# Conc. peptide (µg/mL) = Conc. ADC (µg/mL) × DAR x MWpeptide (Da) […]
# Where Conc. ADC is the ADC/ mAb concentration, MWADC is the mAb molecular weight (150 kDa), MWpeptide is the peptide molecular weight and DAR is the average number of peptides per conjugate.
# This formula was used to convert ADC concentrations to peptide concentrations for all assays. […]
# HK-2 cells [4] = assay: MTT cell viability; format: cell-based, human; settings: n = 3
# Procedure: HK-2 cells (CRL-2190™, Americab Type Culutre Collection (ATCC)), a proximal renal tubule cell(7), and End1/E6E7 (CRL-2615™, ATCC) upper cervical epithelial cells(8) were cultured in Keratinocyte Serum Free Medium (Invitrogen, Life Technologies Ltd.) with human recombinant EGF (5 ng ml-1) and bovine pituitary extract (0.05 mg ml−1) at 37°C in 5% CO2. […]
# Cell viability was assessed by 3-(4,5-dimethylthiazol-2-yl)-2,5-diphenyl-2H-tetrazolium bromide (MTT) assay(9); 200 µl fresh cell media and 250 µg of MTT was added to cells. Plates were Incubated at 37 °C, 5% CO2 for 3 hr then 200 µl of DMSO was added to wells with 25 µl glycine buffer (0.1 M glycine, 0.1 M NaCl pH 10.5) and shaken at 1000 r.p.m. for 10 min. Absorbance was read at OD570 nm. Cell viability was calculated as (sample absorbance – cell free blank/media control absorbance) x100.
# N. gonorrhoeae FA1090 [5] = assay: Time-to-kill assay; format: cell-based, Neisseria gonorrhoeae; settings: FA1090, 50 μg mL^−1 of the AMP, GW medium; n = 3
# Procedure: (§5) Fig. 4. […] (C) Time-to-kill curve analysis with ADCs protocol. N. gonorrhoeae were grown for 24 h prior to harvesting supernatant with or without IgAP, wild-type, and ΔigAP, respectively. Supernatant was dialyzed into fresh media prior to inoculating with respective N. gonorrhoeae strains. After 3 h growth, ADCs or peptides were added, and CFU/mL was calculated every 30 min for 4 h. […] All data shown are the mean ± SD of CFU/ml (n = 3).
# as §1, §2, §3, §4
# (§6) Peptide concentrations for ADCs were calculated from the antibody concentration, the drug-to-antibody ratio (DAR), and the peptide molecular weight using the following formula: […]
# [6] = system: N. gonorrhoeae G97687 (MDR strain); assay: Time-to-kill assay; format: cell-based, Neisseria gonorrhoeae; settings: G97687, peptide 50 μg mL^−1, GW medium; n = 3
# Procedure: as §5, §1, §2, §3, §4, §6
compound,measurement,setting,value
CCCCCCCC(=O)N[C@@H](C(=O)N[C@H](CCN)C(=O)NCC(=O)N[C@H](CO)C(=O)N[C@H](Cc1c[nH]c2ccccc12)C(=O)N[C@@H](CO)C(=O)N[C@@H](CCN)C(=O)N[C@H](CCN)C(=O)N[C@@H](Cc1ccccc1)C(=O)N[C@@H](CCC(=O)O)C(=O)N[C@H](C(=O)N[C@@H](C(=O)N[C@@H](C)C(=O)NCCOCCOCC(=O)N[C@@H](CC(C)C)C(=O)N1CCC[C@H]1C(=O)N[C@@H](CCCNC(=N)N)C(=O)N1CCC[C@H]1C(=O)N1CCC[C@H]1C(=O)O)[C@@H](C)CC)C(C)C)C(C)C [Oct-TriA1-c] (Octanoyl-[dV][dDab]G[dS][dW]S[Dab][dDab]FEV[d(aIle)]A[AEEA]LPRPP-OH),MIC at start of resistance evolution,"N. gonorrhoeae FA1090 [1]; 24 h, MIC = less than 50% growth (OD600) vs no antimicrobial",1.56 µg/mL
same,MIC after 35 d of resistance evolution,"N. gonorrhoeae FA1090 [1]; serial passage 35 d, MIC = less than 50% growth (OD600)",12.5 µg/mL
same,LDH (EC50) 4 h,"HK-2 cells [2]; 2 × 10^4 cells/well, LDH release OD490, 4 h",86.42 µg/mL
same,LDH (EC50) 24 h,"HK-2 cells [2]; LDH release OD490, 24 h",57.71 µg/mL
same,LDH (EC50) 48 h,"HK-2 cells [2]; LDH release OD490, 48 h",50.03 µg/mL
same,MIC,[3],1.56 µg/mL
same,MTT (EC50) 4 h,"HK-2 cells [4]; MTT reduction OD570, 4 h",101.98 µg/mL
same,MTT (EC50) 24 h,"HK-2 cells [4]; MTT reduction OD570, 24 h",78.78 µg/mL
same,MTT (EC50) 48 h,"HK-2 cells [4]; MTT reduction OD570, 48 h",61.09 µg/mL
same,time to undetectable survival,N. gonorrhoeae FA1090 [5],60 min
same,time to no survival,[6],180 min

# Reference: article PMC13439108, “An antibody–drug conjugate active against antibiotic-resistant Neisseria gonorrhoeae” (Proceedings of the National Academy of Sciences of the …, 2026)
